In patent publication US20040018220A1, “Aqueous compositions for facial cosmetics” (Chiou Consulting, Inc., priority 2002, published 2004):

Tested on: facial skin
Test: Single application of glycerin U.S.P. and other strengths of aqueous glycerin solutions and gels (Example IV)
Assay type: in vivo, human

Q: Which results are given for `OCC(O)CO` [Glycerin U.S.P., glycerin]?
A: feeling on application (applied to a wetted facial surface): better feeling (reduced stickiness); shiny, moist, softening and dewy effects (single application, one human subject): results similar to those described in Example I
